Read-outs that look alike come from different tables or passages of the source. Positions of bridges follow the written chain, without caps; N, C: chain ends. No end group written: not given here.
Legend:
[1] = test system: Male New Zealand white rabbits; assay: Cuticle bleeding time assay; format: in vivo, rabbit; conditions: for bleeding compared to the saline control (in words): after 10 minutes
Procedure: (§1) Male New Zealand white rabbits (~4 kg) were anesthetized to surgical anesthesia plane with an IM injection of Ketamine / Xylaxine. The rabbits were placed supine on a restraining board, warmed to 37° C., and the neck and inner thigh area shaved. Teflon catheters were replaced in a marginal ear vein and femoral artery for drug delivery and sample collection respectively. Prior to treatment, blood samples were collected for coagulation tests (APTT and PT). Bleeding time was assessed from a cut made in the cuticle portion of a hind limb nail. Incisions were made in the neck region and the entire left common carotid artery and its branches were surgically isolated. An ultrasonic flow probe (Transonics®) was placed on the common carotid approximately 5 cm caudal to the common--internal bifurcation. After blood flow reached a stable baseline, drugs (saline or test compounds) were delivered via the marginal ear vein. A deflated embolectomy catheter (Fogarty®, 3F) was then introduced into the lumen of the common via an incision in the lingual branch. Blood flow through the artery was stopped briefly while the catheter was introduced and loosely secured with 2-0 silk tie at the incision site. After the catheter was in place and secure, blood flow was restored. The deflated balloon was advanced to within 2 mm of the flow probe and inflated with saline until resistance of the vessel wall was felt. The catheter was pulled back with a steady motion to the first branch and then deflated. This procedure was repeated a total of six times for each experimental animal, after which the catheter was removed. […] Over 40 minutes, blood samples were taken for APTT and PT measurements, cuticle bleeding times were assessed and blood flow through the carotid monitored. Duration of patency was defined as the total amount of time (maximum=40 minutes) that any measurable blood flow is detected in the artery. Patency rate refers to the percentage of animals tested who had carotid artery blood flow ≥5 minutes. At the end of the experiment the rabbit was euthanized and the carotid artery removed and opened. If any thrombus was present, it was removed, blotted and the weight recorded.
Table 3 below describes the results of the cuticle bleeding time assay at 10 minutes after dosing.

[2] = test system: Male New Zealand white rabbits; assay: Rabbit deep medial injury model (carotid artery patency, thrombus weight); format: in vivo; conditions: for Clot (mps) / Duration (Min.) of patency: mean ± sem
Procedure: as §1

[3] = test system: rabbit plasma; assay: APTT clotting time in rabbit plasma; format: biochemical; conditions: 40 μM
Procedure: (§2) Samples of rabbit plasma were assayed using an MLA 800 coagulometer and Dade reagents. Actin FS® was the activator in the APTT assay. Rabbit Thromboplastin with Ca++ was used for the PT assays; the rabbit thromboplastin was diluted two-fold. All mutant inhibitors tested prolonged clotting by at least one fold. […] A greater than 10 fold prolongation of the clotting time at 40μM was observed.

[4] = biological target: T1, TF-FVIIa (Homo sapiens, UniProt P08709); assay: Enzyme inhibition assay, apparent equilibrium dissociation constant (Ki*) with TF-FVIIa; format: biochemical
T1 construct: is generated by proteolysis of a single peptide bond from its zymogen Factor VII (FVII); purchased Haematologic Technologies Inc. (FVIIa); TF1-243 made in house in E. coli; host or cells: E. coli (TF1-243)
T1 sequence (P08709 213-466 limits assumed): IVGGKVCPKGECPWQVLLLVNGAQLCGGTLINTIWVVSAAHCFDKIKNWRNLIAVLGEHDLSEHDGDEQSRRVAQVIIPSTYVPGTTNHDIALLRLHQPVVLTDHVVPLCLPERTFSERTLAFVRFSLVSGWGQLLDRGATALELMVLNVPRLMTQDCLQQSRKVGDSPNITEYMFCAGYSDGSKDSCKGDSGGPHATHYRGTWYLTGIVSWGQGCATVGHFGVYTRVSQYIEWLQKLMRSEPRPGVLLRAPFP
T1 sequence (P08709 61-212 limits assumed): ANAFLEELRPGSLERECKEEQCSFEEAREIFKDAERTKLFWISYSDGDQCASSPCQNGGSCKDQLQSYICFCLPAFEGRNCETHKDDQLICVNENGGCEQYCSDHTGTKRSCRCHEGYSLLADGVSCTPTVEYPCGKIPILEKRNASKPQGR
T1 sequence (P13726 33-275 partner limits assumed): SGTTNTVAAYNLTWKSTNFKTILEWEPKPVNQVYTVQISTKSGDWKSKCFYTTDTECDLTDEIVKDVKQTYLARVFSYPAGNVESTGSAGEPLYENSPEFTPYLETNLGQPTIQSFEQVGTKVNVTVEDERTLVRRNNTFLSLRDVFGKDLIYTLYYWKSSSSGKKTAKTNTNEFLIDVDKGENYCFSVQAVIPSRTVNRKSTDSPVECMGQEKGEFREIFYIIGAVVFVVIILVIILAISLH
Procedure: Aliquots (25 μL) from each well of a microtiter plate containing the serially diluted inhibitors were transferred into new microtiter plates, each containing a different protease (100 μL) in the appropriate buffer. The proteases tested (protease concentration, buffer, substrate) were FVIIa (10 nM, Buffer A, 0.7 mM S2366), FXIa (1.0 nM, Buffer B containing 1 mg/ml BSA, 0.7 mM S2366), plasma kallikrein (3.5 nM, Buffer B, 0.5 mM S2302), and plasmin (15 nM, Buffer B, 1 mM S2251).

[5] = test system: rabbit plasma; assay: PT clotting time in rabbit plasma; format: biochemical; conditions: 40 μM
Procedure: as §2

[6] = test system: normal human plasma; assay: Activated partial thromboplastin time (APTT) assay, initiated by ellagic acid; format: biochemical
Procedure: For the activated partial thromboplastin time (APTT) assays, the activation time was set at 120 sec and acquisition time at 300 to 600 sec depending on the expected outcome of the assay. Citrated normal human plasma and inhibitor were incubated together. The sample (plasma and inhibitor) and activator (Instrumentation Laboratories Ellagic acid/Phospholipid mix Test Reagent) were automatically pipetted and incubated together for 2 min at 37° C., then CaCl2 was added and clotting time determined by means of optical assessment. The total incubation time of inhibitor with plasma was ca. 3 min before addition of activator, and 5 min before addition of CaCl2.

[7] = Heparin 1: 25 u/kg bolus then 0.5 u/kg/min infusion
[8] = Heparin 2: 25 u/kg bolus then 1 u/kg/min infusion

**Q.** Which results are given for Heparin?
**A.** Cuticle bleeding time, fold increase over pre dose ([1]; rabbit, in vivo): 1.7 ± 0.4 fold; Patency (%) [2, 7]: 67%; Clot (mps) [2, 7]: 13.6 ± 4.7 mps; Duration (Min.) of patency [2, 7]: 23.3 ± 6.7 min; Patency (%) [2, 8]: 100%; Clot (mps) [2, 8]: 19.1 ± 8.5 mps; Duration (Min.) of patency [2, 8]: 35.2 ± 2.2 min; patency and clot size compared to the saline control (in words) ([2]; rabbit, in vivo): significantly prolonged patency and reduced clot size

**Q.** For `CC[C@H](C)[C@@H]1NC(=O)[C@H](CC(C)C)NC(=O)[C@H](C)NC(=O)[C@H](CCCNC(=N)N)NC(=O)[C@@H]2CSSC[C@@H]3NC(=O)CNC(=O)CNC(=O)[C@H](Cc4ccc(O)cc4)NC(=O)[C@H](Cc4ccccc4)NC(=O)[C@H](Cc4ccccc4)NC(=O)[C@@H]4CCCN4C(=O)[C@H](C)NC(=O)[C@H](CSSC[C@H](NC(=O)[C@H](Cc4ccc(O)cc4)NC(=O)[C@H](CCC(=O)O)NC(=O)[C@H](CCC(=O)O)NC(=O)[C@H]([C@@H](C)O)NC(=O)[C@H](CC(=O)O)NC(=O)[C@H](Cc4ccccc4)NC(=O)[C@H](CC(N)=O)NC(=O)[C@H](CC(N)=O)NC(=O)[C@H](CCCNC(=N)N)NC(=O)[C@H](CC(N)=O)NC(=O)CNC(=O)[C@H](Cc4ccc(O)cc4)NC3=O)C(=O)N[C@@H](C)C(=O)N[C@@H](C)C(=O)N[C@@H](C(C)C)C(=O)N[C@H](C(=O)NCC(=O)N[C@@H](CO)C(=O)N[C@@H](C)C(=O)O)CSSC[C@H](NC(=O)[C@@H](NC(=O)[C@H](CCC(=O)O)NC(=O)[C@H](CCCNC(=N)N)NC(=O)[C@@H](N)C(C)C)C(C)C)C(=O)N[C@@H](CO)C(=O)N[C@@H](CCC(=O)O)C(=O)N[C@@H](CCC(N)=O)C(=O)N[C@@H](C)C(=O)N[C@@H](CCC(=O)O)C(=O)N3CCC[C@H]3C(=O)NCC(=O)N3CCC[C@H]3C(=O)N2)NC(=O)[C@H](CCCCN)NC(=O)CNC(=O)[C@H](CCC(=O)O)NC(=O)[C@H]([C@@H](C)O)NC(=O)[C@H](C(C)C)NC(=O)[C@H](CC(=O)O)NC(=O)[C@H](Cc2ccccc2)NC(=O)[C@H](Cc2ccc(O)cc2)NC(=O)[C@H](Cc2c[nH]c3ccccc23)NC(=O)[C@H](CCCNC(=N)N)NC(=O)[C@H](CC(C)C)NC1=O` [TF7I-C], which “bleeding compared to the saline control (in words)” value [1] is on record?
**A.** did not induce prolonged bleeding

**Q.** With “APPI: Alzheimer's amyloid β-protein precursor inhibitor, wild type Kunitz domain (58 residues, SEQ ID NO: 34) (VREVCSEQAETGPCRAMISRWYFDVTEGKCAPFFYGGCGGNRNNFDTEEYCMAVCGSA)” as the molecule, how does the “APTT, fold increase over baseline” value [3] read?
**A.** 4.9 fold

**Q.** What about the “Cuticle bleeding time, fold increase over pre dose” value ([1]; rabbit, in vivo, iv, 2 mg/kg) of the same molecule?
**A.** 2.2 ± 0.6 fold

**Q.** And the “inhibition of TF-FVIIa (in words)” value [4]?
**A.** moderate inhibitor

**Q.** What about the Ki ([4]; FVIIa 10 nM and TF1-243 50 nM, representative of nine (TF7I-C) and seven (APPI) determinations, read-out: Ki* with TF-FVIIa (FIG. 5, representative determination)) of the same molecule?
**A.** 300 nM

**Q.** And the Ki ([4]; FVIIa 10 nM, TF1-243, S2366, pH 7.5, read-out: apparent equilibrium dissociation constant Ki* with TF-FVIIa)?
**A.** 301 ± 44 nM

**Q.** And the “PT, fold increase over baseline” value [5]?
**A.** 1.4 fold

**Q.** And the “Patency (%)” value ([2]; 2 mg/kg IV bolus, animals with carotid blood flow ≥5 minutes)?
**A.** 40%

**Q.** And the “Duration (Min.) of patency” value ([2]; 2 mg/kg IV bolus, maximum 40 minutes)?
**A.** 13.4 ± 8.5 min

**Q.** And the “Clot (mps)” value ([2]; 2 mg/kg IV bolus, thrombus weight)?
**A.** 49.5 ± 18.2 mps

**Q.** And the “APTT clotting time, fold prolongation” value ([6]; 40 μM inhibitor, uninhibited 31 s)?
**A.** 3.6 fold

**Q.** And the “APTT clotting time, fold prolongation” value ([6]; ca. 7 μM inhibitor)?
**A.** ca. 3 fold

**Q.** With “VREVCSEQAEPGPCRAMMKRWYFDVTEGKCAPFIYGGCYGNRNNFDTEEYCAAVCGSA (disulfide 5-55, 14-38, 30-51) [IV-49C]” as the molecule, how does the “Cuticle bleeding time, fold increase over pre dose” value ([1]; 10 minutes after dosing, 2 mg/kg IV bolus) read?
**A.** 1.0 ± 1.0 fold

**Q.** And the “bleeding compared to the saline control (in words)” value [1]?
**A.** did not induce prolonged bleeding

From patent US5834244A, “Factor VIIa inhibitors from Kunitz domain proteins” (Genentech, Inc., priority 1995, dated 1998)
